Molecular target: T1, Androgen Receptor (AR) protein (Homo sapiens, UniProt P10275, T878A)
T1 construct: endogenous in cells; host or cells: LNCaP
Experiment: Androgen Receptor (AR) protein degradation assay in LNCaP cells, western blotting
Assay type: cell-based
Conditions: 20 h; for inhibition at 0.01 µM: 0.01 μM compound; for inhibition at 0.1 µM: 0.1 μM compound; for inhibition at 1 µM: 1 μM compound
Method in brief: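 AR protein level was detected by western blot (ECL) against GAPDH or β-actin controls, with 8 μg lysate protein loaded per lane after BCA quantification. Lysates came from LNCaP cells exposed to test compound for 20 h, following 3 days of growth in RPMI/10% FBS.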

T1 sequence (P10275 whole entry T878A): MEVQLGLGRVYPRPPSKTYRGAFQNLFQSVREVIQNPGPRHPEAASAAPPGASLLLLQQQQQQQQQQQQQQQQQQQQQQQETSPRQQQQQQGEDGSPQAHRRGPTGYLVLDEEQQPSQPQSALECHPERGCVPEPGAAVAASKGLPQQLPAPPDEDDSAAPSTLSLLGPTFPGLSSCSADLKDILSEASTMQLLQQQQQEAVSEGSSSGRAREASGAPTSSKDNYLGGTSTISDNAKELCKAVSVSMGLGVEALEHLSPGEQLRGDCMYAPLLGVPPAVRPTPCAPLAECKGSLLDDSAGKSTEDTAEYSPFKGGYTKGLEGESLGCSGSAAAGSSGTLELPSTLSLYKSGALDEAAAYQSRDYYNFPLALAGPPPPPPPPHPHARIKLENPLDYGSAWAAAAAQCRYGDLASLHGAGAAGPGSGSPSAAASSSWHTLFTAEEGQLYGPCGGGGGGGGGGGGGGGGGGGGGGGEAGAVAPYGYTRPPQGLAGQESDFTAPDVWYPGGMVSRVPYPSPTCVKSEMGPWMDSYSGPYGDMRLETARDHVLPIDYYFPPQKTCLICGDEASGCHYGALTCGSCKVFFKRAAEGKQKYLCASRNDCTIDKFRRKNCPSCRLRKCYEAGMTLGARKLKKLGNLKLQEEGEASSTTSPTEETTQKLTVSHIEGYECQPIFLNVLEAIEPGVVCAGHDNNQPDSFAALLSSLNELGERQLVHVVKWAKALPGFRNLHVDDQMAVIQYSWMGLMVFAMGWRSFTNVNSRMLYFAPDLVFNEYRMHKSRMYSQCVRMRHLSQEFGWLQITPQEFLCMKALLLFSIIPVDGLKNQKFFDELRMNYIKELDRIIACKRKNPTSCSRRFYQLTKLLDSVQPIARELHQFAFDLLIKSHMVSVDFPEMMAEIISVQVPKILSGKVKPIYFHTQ
T1 sequence (Q96SW2 whole entry partner): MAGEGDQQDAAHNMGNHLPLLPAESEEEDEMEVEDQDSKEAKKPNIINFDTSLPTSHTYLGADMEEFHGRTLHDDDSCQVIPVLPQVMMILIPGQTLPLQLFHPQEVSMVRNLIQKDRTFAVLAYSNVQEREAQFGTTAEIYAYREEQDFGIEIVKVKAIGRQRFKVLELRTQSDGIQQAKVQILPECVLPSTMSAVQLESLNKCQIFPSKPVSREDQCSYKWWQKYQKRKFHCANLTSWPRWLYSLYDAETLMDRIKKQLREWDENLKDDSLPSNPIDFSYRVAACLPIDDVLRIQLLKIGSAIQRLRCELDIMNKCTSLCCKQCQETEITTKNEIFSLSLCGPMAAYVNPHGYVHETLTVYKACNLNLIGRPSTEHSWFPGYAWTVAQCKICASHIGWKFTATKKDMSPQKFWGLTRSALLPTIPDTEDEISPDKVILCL

Compound | inhibition at 0.01 µM [%] | inhibition at 0.1 µM [%] | inhibition at 1 µM [%]
N#Cc1ccc(N2CCC(C(=O)Nc3ccc(N4CCC(CN5CC6CN(c7ccc8c(c7)C(=O)N(C7CCC(=O)NC7=O)C8=O)CC6C5)CC4)cn3)CC2)cc1C(F)(F)F (stereo not drawn) [Example 85, 1-(4-cyano-3-(trifluoromethyl)phenyl)-N-(5-(4-((5-(2-(2,6-dioxopiperidin-3-yl)-1,3-dioxoisoindolin-5-yl)hexahydropyrrolo[3,4-c]pyrrol-2(1H)-yl)methyl)piperidin-1-yl)pyridin-2-yl)piperidine-4-carboxamide] | 24 | 89 | 92
N#Cc1ccc(N2CCC(C(=O)Nc3ccc(N4CCC(CCN5CCN(c6ccc7c(c6)C(=O)N(C6CCC(=O)NC6=O)C7=O)CC5)CC4)cn3)CC2)cc1C(F)(F)F (stereo not drawn) [Example 86, 1-(4-cyano-3-(trifluoromethyl)phenyl)-N-(5-(4-(2-(4-(2-(2,6-dioxopiperidin-3-yl)-1,3-dioxoisoindolin-5-yl)piperazin-1-yl)ethyl)piperidin-1-yl)pyridin-2-yl)piperidine-4-carboxamide] | 65 | 94 | 96
N#Cc1ccc(N2CCC(C(=O)Nc3ccc(N4CCC(CCN5CCN(c6ccc7c(c6)C(=O)N(C6CCC(=O)NC6=O)C7=O)CC5)CC4)cn3)CC2)cc1Cl (stereo not drawn) [Example 87, 1-(3-chloro-4-cyanophenyl)-N-(5-(4-(2-(4-(2-(2,6-dioxopiperidin-3-yl)-1,3-dioxoisoindolin-5-yl)piperazin-1-yl)ethyl)piperidin-1-yl)pyridin-2-yl)piperidine-4-carboxamide] | 30 | 88 | 90
N#Cc1ccc(N2CCC(F)(C(=O)Nc3ccc(N4CCC(CCN5CCN(c6ccc7c(c6)C(=O)N(C6CCC(=O)NC6=O)C7=O)CC5)CC4)cn3)CC2)cc1C(F)(F)F (stereo not drawn) [Example 88, 1-(4-cyano-3-(trifluoromethyl)phenyl)-N-(5-(4-(2-(4-(2-(2,6-dioxopiperidin-3-yl)-1,3-dioxoisoindolin-5-yl)piperazin-1-yl)ethyl)piperidin-1-yl)pyridin-2-yl)-4-fluoropiperidine-4-carboxamide] | 35 | 87 | 96
N#Cc1ncc(N2CCC(C(=O)Nc3ccc(N4CCC(CCN5CCN(c6ccc7c(c6)C(=O)N(C6CCC(=O)NC6=O)C7=O)CC5)CC4)cn3)CC2)cc1C(F)(F)F (stereo not drawn) [Example 89, 1-(6-cyano-5-(trifluoromethyl)pyridin-3-yl)-N-(5-(4-(2-(4-(2-(2,6-dioxopiperidin-3-yl)-1,3-dioxoisoindolin-5-yl)piperazin-1-yl)ethyl)piperidin-1-yl)pyridin-2-yl)piperidine-4-carboxamide] | 35 | 73 | 91
N#Cc1ncc(N2CCC(F)(C(=O)Nc3ccc(N4CCC(CCN5CCN(c6ccc7c(c6)C(=O)N(C6CCC(=O)NC6=O)C7=O)CC5)CC4)cn3)CC2)cc1C(F)(F)F (stereo not drawn) [Example 90, 1-(6-cyano-5-(trifluoromethyl)pyridin-3-yl)-N-(5-(4-(2-(4-(2-(2,6-dioxopiperidin-3-yl)-1,3-dioxoisoindolin-5-yl)piperazin-1-yl)ethyl)piperidin-1-yl)pyridin-2-yl)-4-fluoropiperidine-4-carboxamide] | 23 | 57 | 82
N#Cc1ccc(N2CCC(C(=O)Nc3ccc(N4CCC(CCN5CCN(C6CCN(c7ccc8c(c7)C(=O)N(C7CCC(=O)NC7=O)C8=O)CC6)CC5)CC4)cn3)CC2)cc1C(F)(F)F (stereo not drawn) [Example 91, 1-(4-cyano-3-(trifluoromethyl)phenyl)-N-(5-(4-(2-(4-(1-(2-(2,6-dioxopiperidin-3-yl)-1,3-dioxoisoindolin-5-yl)piperidin-4-yl)piperazin-1-yl)ethyl)piperidin-1-yl)pyridin-2-yl)piperidine-4-carboxamide] | 48 | 96 | 98

— US12122763B2, “Substituted piperidines for androgen receptor degradation” (UBIX THERAPEUTICS, INC., priority 2020, dated 2024)
